How the values were obtained:
Type in all cases: in vivo
[1] = test system: Asian soybean rust (Phakopsora pachyrhizi); experiment: Seed dipping with mefentrifluconazole, Asian soybean rust inoculation, fresh weight of aerial part (Example 4 / Comparative Example 4); conditions: 200 g per hectare; for Treatment/control ratio (100 × A/B): seed dipping 0.2 mg per seed, 7 days from inoculation; for Protection from the damage by the pathogen: seed dipping
Procedure: Seeds of two varieties of determinate soybean were separately dipped in a mefentrifluconazole dilution liquid (prepared by diluting an aqueous suspension concentrate of mefentrifluconazole with water) so that the amount of mefentrifluconazole to be applied to each seed might be 0.2 mg. Then, the determinate soybean seeds were sown to a pot filled with a soil at a sowing rate of 1,000,000 seeds per hectare. That is, the application rate of mefentrifluconazole was 200 g per hectare. Each determinate soybean was incubated in a greenhouse for 11 days from the sowing, and then a pathogen of Asian soybean rust (Phakopsora pachyrhizi) was inoculated to the foliage of each determinate soybean. Each determinate soybean was incubated in a greenhouse for 7 days from the inoculation, and then fresh weight of the aerial part of each determinate soybean was measured. The fresh weight is referred to as ‘the fresh weight in treatment plot’. As a control experiment, the same procedure was repeated except that dipping treatment with mefentrifluconazole dilution liquid and the inoculation of the pathogen were not conducted. The fresh weight obtained in the control experiment is referred to as ‘the fresh weight in control plot’. The same procedure of the example 4 was repeated except for replacing two varieties of determinate soybean with two varieties of indeterminate soybean.

[2] = test system: Asian soybean rust (Phakopsora pachyrhizi); experiment: Dripping mefentrifluconazole onto apical bud, Asian soybean rust inoculation, fresh weight of aerial part (Example 5 / Comparative Example 5); conditions: 500 g per hectare; for Treatment/control ratio (100 × A/B): dripped onto apical bud 0.5 mg per plant, 7 days from inoculation
Procedure: Two varieties of determinate soybean were sown to a pot filled with a soil at a sowing rate of 1,000,000 seeds per hectare. Then each determinate soybean was incubated for […] in a greenhouse. A mefentrifluconazole dilution liquid (prepared by diluting an aqueous suspension concentrate of mefentrifluconazole with water) is dripped onto the apical bud of determinate soybean plants so that the amount of mefentrifluconazole to be applied to each plant might be 0.5 mg. That is, the application rate of mefentrifluconazole was 500 g per hectare. Three days after the application, a pathogen of Asian soybean rust (Phakopsora pachyrhizi) was inoculated to the foliage of each determinate soybean. Each determinate soybean was incubated in a greenhouse for 7 days from the inoculation, and then fresh weight of the aerial part of each determinate soybean was measured. The fresh weight is referred to as ‘the fresh weight in treatment plot’.
As a control experiment, the same procedure was repeated except that dripping treatment with mefentrifluconazole dilution liquid and the inoculation of the pathogen were not conducted. The fresh weight obtained in the control experiment is referred to as ‘the fresh weight in control plot’.
The same procedure of the example 5 was repeated except for replacing two varieties of determinate soybean with two varieties of indeterminate soybean.

[3] = test system: Asian soybean rust (Phakopsora pachyrhizi); experiment: Foliar spray of mefentrifluconazole, Asian soybean rust inoculation, fresh weight of aerial part (Example 1 / Comparative Example 1); conditions: foliar spray 500 g per hectare, 14 days from inoculation
Procedure: Determinate soybean is sown to a pot filled with a soil. It is incubated for 7 days in a greenhouse. Mefentrifluconazole spray liquid (prepared by diluting an aqueous suspension concentrate of mefentrifluconazole with water) is uniformly sprayed onto the foliage of determinate soybean at the amount of 200 L per hectare so that the application rate of mefentrifluconazole may be 500 g per hectare. On the next day of the spraying, a pathogen of Asian soybean rust (Phakopsora pachyrhizi) is inoculated to the foliage of determinate soybean. The determinate soybean is incubated in a greenhouse for 14 days from the inoculation, and then fresh weight of the aerial part of the determinate soybean is measured. It is confirmed that the fresh weight is equivalent to that of the control where determinate soybean is not treated with mefentrifluconazole and the pathogen is not inoculated (no-treatment-no-inoculation control) and is bigger than that of the control where determinate soybean is not treated with mefentrifluconazole and the pathogen is inoculated (no-treatment-inoculation control). The same procedure of the example 1 is repeated except for replacing determinate soybean with indeterminate soybean or semi-determinate soybean. It is confirmed that the fresh weight of indeterminate soybean or semi-determinate soybean is smaller than that of the corresponding no-treatment-no-inoculation control and is equivalent to that of the corresponding no-treatment-inoculation control.

[4] = test system: Asian soybean rust (Phakopsora pachyrhizi); experiment: Seed coating with mefentrifluconazole, Asian soybean rust inoculation, fresh weight of aerial part (Example 2 / Comparative Example 2); conditions: seed coating 0.2 mg per seed, 20 g per hectare, 14 days from inoculation
Procedure: Seeds of determinate soybean are coated with a mefentrifluconazole aqueous suspension concentrate so that the amount of mefentrifluconazole to be applied to each seed may be 0.2 mg. Then, the determinate soybean seeds are sown to a pot filled with a soil at a sowing rate of 100,000 seeds per hectare. That is, the application rate of mefentrifluconazole is 20 g per hectare. Then, the determinate soybean is incubated in a greenhouse for 10 days, followed by inoculating a pathogen of Asian soybean rust (Phakopsora pachyrhizi) to the foliage of determinate soybean. The determinate soybean is incubated in a greenhouse for 14 days from the inoculation, and then the fresh weight of the aerial part of the determinate soybean is measured. It is confirmed that the fresh weight is equivalent to that of the control where determinate soybean is not treated with mefentrifluconazole and the pathogen is not inoculated (no-treatment-no-inoculation control) and is bigger than that of the control where determinate soybean is not treated with mefentrifluconazole and the pathogen is inoculated (no-treatment-inoculation control). The same procedure of the example 2 is repeated except for replacing determinate soybean with indeterminate soybean or semi-determinate soybean. It is confirmed that the fresh weight of indeterminate soybean or semi-determinate soybean is smaller than that of the corresponding no-treatment-no-inoculation control and is equivalent to that of the corresponding no-treatment-inoculation control.

[5] = test system: Asian soybean rust (Phakopsora pachyrhizi); experiment: Dripping mefentrifluconazole onto primary leaf, Asian soybean rust inoculation, fresh weight of aerial part (Example 3 / Comparative Example 3); conditions: dripped onto primary leaf 0.2 mg per plant, 200 g per hectare, 14 days from inoculation
Procedure: Determinate soybean is sown to a pot filled with a soil at a sowing rate of 1,000,000 seeds per hectare. The determinate soybean is incubated for 10 days in a greenhouse, and then mefentrifluconazole dilution liquid (prepared by diluting an aqueous suspension concentrate of mefentrifluconazole with water) is dripped onto the primary leaf of determinate soybean so that the amount of mefentrifluconazole to be applied to each plant may be 0.2 mg. That is, the application rate of mefentrifluconazole is 200 g per hectare. On the next day of the application, a pathogen of Asian soybean rust (Phakopsora pachyrhizi) is inoculated to the foliage of determinate soybean. The determinate soybean is incubated in a greenhouse for 14 days from the inoculation, and then fresh weight of the aerial part of the determinate soybean is measured. It is confirmed that the fresh weight is equivalent to that of the control where determinate soybean is not treated with mefentrifluconazole and the pathogen is not inoculated (no-treatment-no-inoculation control) and is bigger than that of the control where determinate soybean is not treated with mefentrifluconazole and the pathogen is inoculated (no-treatment-inoculation control).
The same procedure of the example 3 is repeated except for replacing determinate soybean with indeterminate soybean or semi-determinate soybean. It is confirmed that the fresh weight of indeterminate soybean or semi-determinate soybean is smaller than that of the corresponding no-treatment-no-inoculation control and is equivalent to that of the corresponding no-treatment-inoculation control.

[6] = Kurosengoku, indeterminate soybean
[7] = Toyomusume, determinate soybean
[8] = indeterminate or semi-determinate soybean

CC(O)(Cn1cncn1)c1ccc(Oc2ccc(Cl)cc2)cc1C(F)(F)F (centres unmarked) [mefentrifluconazole]
Treatment/control ratio (100 × A/B) ([1]; Harosoy, indeterminate soybean): 55
Treatment/control ratio (100 × A/B) [1, 6]: 68
Treatment/control ratio (100 × A/B) ([1]; Tambaguro, determinate soybean): 104
Treatment/control ratio (100 × A/B) [1, 7]: 105
Protection from the damage by the pathogen ([1]; determinate soybean (Table 1)): successfully protected
Protection from the damage by the pathogen ([1]; indeterminate soybean (Table 2)): not successfully protected
Treatment/control ratio (100 × A/B) [2, 6]: 49
Treatment/control ratio (100 × A/B) ([2]; Tambaguro, determinate soybean): 82
Treatment/control ratio (100 × A/B) [2, 7]: 85
Treatment/control ratio (100 × A/B) ([2]; Williams 82, indeterminate soybean): 39
Protection from the damage by the pathogen ([2]; determinate versus indeterminate soybeans (Tables 3 and 4), dripped onto apical bud): protected much more effectively compared with indeterminate soybeans
Fresh weight of aerial part compared with no-treatment-inoculation control ([3]; determinate soybean): bigger
Fresh weight of aerial part compared with no-treatment-no-inoculation control ([3]; determinate soybean): equivalent
Fresh weight of aerial part compared with no-treatment-inoculation control [3, 8]: equivalent
Fresh weight of aerial part compared with no-treatment-no-inoculation control [3, 8]: smaller
Fresh weight of aerial part compared with no-treatment-inoculation control ([4]; determinate soybean): bigger
Fresh weight of aerial part compared with no-treatment-no-inoculation control ([4]; determinate soybean): equivalent
Fresh weight of aerial part compared with no-treatment-inoculation control [4, 8]: equivalent
Fresh weight of aerial part compared with no-treatment-no-inoculation control [4, 8]: smaller
Fresh weight of aerial part compared with no-treatment-inoculation control ([5]; determinate soybean): bigger
Fresh weight of aerial part compared with no-treatment-no-inoculation control ([5]; determinate soybean): equivalent
Fresh weight of aerial part compared with no-treatment-inoculation control [5, 8]: equivalent
Fresh weight of aerial part compared with no-treatment-no-inoculation control [5, 8]: smaller

Reference: patent publication US11304417B2, “Method of protecting determinate soybean from damage by a plant pathogen” (SUMITOMO CHEMICAL COMPANY, LIMITED, priority 2019, dated 2022)
